Where two headings read alike, the source gives them in different places.
Conditions: solid state
[1] = amber type II glass, away from light, t0, % area HPLC 240 nm
[2] = amber glass, away from light, t = 1 month
[3] = amber glass, away from light, t = 5 month
[4] = amber glass, away from light, t = 4 months
[5] = amber glass, away from light, t = 2 months
[6] = amber glass, away from light, t = 6 months

Procedure: The elution is carried out by gradient. The mobile phase consists of ammonium formiate buffer 100 mM pH 4.5 (eluent A) and acetonitrile (eluent B). The composition of the mobile phase was modified continuously during the elution process according to the following Table II:

CC1(C)C(/C=C/C=C/C=C/C=C2\N(CCCCS(=O)(=O)[O-])c3ccc4ccccc4c3C2(C)C)=[N+](CCCCS(=O)(=O)[O-])c2ccc3ccccc3c21.[Na+] [NaOAsc, Indocyanine green]
ICG purity (HPLC) [1]: 99.95% | Total impurities (HPLC) [1]: 0.05% | ICG purity (HPLC) (t = 8 weeks): 99.72% | Total impurities (HPLC) (t = 8 weeks): 0.28%

CC1(C)C(/C=C/C=C/C=C/C=C2\N(CCCCS(=O)(=O)[O-])c3ccc4ccccc4c3C2(C)C)=[N+](CCCCS(=O)(=O)[O-])c2ccc3ccccc3c21.[Na+] [NaBr, Indocyanine green]
ICG purity (HPLC) [1]: 99.95% | Total impurities (HPLC) [1]: 0.05% | ICG purity (HPLC) (t = 4 weeks): 99.84% | Total impurities (HPLC) (t = 4 weeks): 0.16%

CC1(C)C(/C=C/C=C/C=C/C=C2\N(CCCCS(=O)(=O)[O-])c3ccc4ccccc4c3C2(C)C)=[N+](CCCCS(=O)(=O)[O-])c2ccc3ccccc3c21.[Na+] [NaOEt, Indocyanine green]
ICG purity (HPLC) [1]: 99.58% | Total impurities (HPLC) [1]: 0.42% | ICG purity (HPLC) (t = 8 weeks): 99.34% | Total impurities (HPLC) (t = 8 weeks): 0.66%

CC1(C)C(/C=C/C=C/C=C/C=C2\N(CCCCS(=O)(=O)[O-])c3ccc4ccccc4c3C2(C)C)=[N+](CCCCS(=O)(=O)[O-])c2ccc3ccccc3c21.[Na+] [NaOAc, Indocyanine green]
ICG purity (HPLC) [1]: 99.95% | Total impurities (HPLC) [1]: 0.05% | ICG purity (HPLC) (t = 8 weeks): 99.65% | Total impurities (HPLC) (t = 8 weeks): 0.35%

CC1(C)C(/C=C/C=C/C=C/C=C2\N(CCCCS(=O)(=O)[O-])c3ccc4ccccc4c3C2(C)C)=[N+](CCCCS(=O)(=O)[O-])c2ccc3ccccc3c21.[Na+] [Example 3, Indocyanine green]
ICG purity (HPLC) [2]: 98.39% | Total impurities (HPLC) [2]: 1.61% | ICG purity (HPLC) [3]: 97.95% | Total impurities (HPLC) [3]: 2.05% | ICG purity (HPLC) [1]: 98.60% | Total impurities (HPLC) [1]: 1.40%

CC1(C)C(/C=C/C=C/C=C/C=C2\N(CCCCS(=O)(=O)[O-])c3ccc4ccccc4c3C2(C)C)=[N+](CCCCS(=O)(=O)[O-])c2ccc3ccccc3c21.[Na+] [Example 4, Indocyanine green]
ICG purity (HPLC) [4]: 94.11% | Total impurities (HPLC) [4]: 5.89% | ICG purity (HPLC) [1]: 95.98% | Total impurities (HPLC) [1]: 4.02%

CC1(C)C(/C=C/C=C/C=C/C=C2\N(CCCCS(=O)(=O)[O-])c3ccc4ccccc4c3C2(C)C)=[N+](CCCCS(=O)(=O)[O-])c2ccc3ccccc3c21.[Na+] [Example 2, Indocyanine green]
ICG purity (HPLC) [2]: 99.25% | Total impurities (HPLC) [2]: 0.75% | ICG purity (HPLC) [5]: 99.09% | Total impurities (HPLC) [5]: 0.91% | ICG purity (HPLC) [6]: 99.03% | Total impurities (HPLC) [6]: 0.97% | ICG purity (HPLC) [1]: 99.21% | Total impurities (HPLC) [1]: 0.79%
